Measurements as given in patent US11111217B2, “2-arylbenzimidazoles as Ppargc1a activators for treating neurodegenerative diseases” (The Board of Trustees of the Leland Stanford Junior …, priority 2018, dated 2021).
Where “and” joins values, the source holds several entries; their conditions need not be identical. Equal values may be shown once.

Tests used:
[1] = Microsome stability assay, mouse liver microsomes; type: in vitro ADME; settings: pH 7.4, 1 μM test compound, NADPH 1 mM, 37° C., 0-40 mins, read-out: MLM t1/2
Protocol: (§1) Microsome Stability Assay Protocol
(§2) Human liver microsomes (Corning #452117 lot 38291) or Mouse liver microsomes (Corning #452701, lot #6328004) were separately combined at a final concentration of […] with KxPO4 pH 7.4 (100 mM), MgCl2 (10 mM), and test compound (1 μM) and pre-incubated (10 min, 37° C.). Next, NADPH (1 mM) was added to begin reactions (total volume 100 μL). At various time points (0, 10, 20, and 40 mins), reactions were quenched with Clem stop solution (100 μL, 625 ng/mL) (Cyprotex) in Acetonitrile. Samples were centrifuged at 4000 g for 20 mins, diluted (75 μL into 75 μL 0.1% formic acid in water), and analyzed by LC-MS/MS.

[2] = Microsome stability assay, human liver microsomes; type: in vitro ADME; settings: pH 7.4, 1 μM test compound, NADPH 1 mM, 37° C., 0-40 mins, read-out: HLM t1/2
Protocol: as §1, §2

[3] = system: TNF-α production by BV2 cells or PBMC; assay: Cellular assay to measure TNF-α inhibition (LPS-stimulated, ELISA); type: cell-based, murine (BV2) or human (PBMC); settings: BV2 cells or PBMC (not specified), LPS 100 ng/ml over 24 hours, relative to DMSO vehicle; compound concentration not stated
Text: Oxidative metabolism exerts an anti-inflammatory effect on myeloid cell phenotype (O'Neill L A, Front Immunol. 2014) and Ppargc1a can promote this energy metabolic pathway (Spiegelman BM, Novartis Found Symp. 2007). Thus, pharmacological activation of Ppargc1a would be expected to inhibit the inflammatory response of myeloid cells. This phenomenon can be measured in cultures by a TNF-α inhibition assay.
Cellular Assay Protocol to Measure TNF-α Inhibition
The murine myeloid cell line BV2 or human peripheral blood mononuclear cells (PBMC) are cultured in RPMI 1640 media (Cat #11875119, Gibco) supplemented with 10% fetal bovine serum and 1% L-glutamine 1% penicillin. These cells are then stimulated with 100 ng/ml of lipopolysaccharide (LPS, O111:B34, Cat # L2630, Sigma) over 24 hours. LPS stimulation results in the secretion of the inflammatory cytokine TNF-α by BV2 cells or PBMC, which can be quantified by ELISA in culture supernatant samples per manufacturer's protocol (Cat #558273 for BV2 and Cat #558299 for PBMC, BD Biosciences). To determine whether exampl compounds 1-78 inhibit TNF-α production by BV2 cells or PBMC, the cells were cultured in the presence of the compounds at different concentrations, and fold reduction in TNF-α production relative to TNF-α production by the same cells cultured in the presence of dimethylsulfoxide (as vehicle control) was determined.

Caco-2 cells = assay: Caco-2 permeability assay; settings: 10 μM, HBSS pH 7.4, 37° C., 2 h; for Caco2 A → B: without elacridar
Protocol: Caco-2 Permeability Assay Protocol
Caco-2 cells were maintained in DMEM in an atmosphere of 5% CO2. For transport experiments 5×10^5 cells/well of were seeded on polycarbonate filter inserts and allowed to grow and differentiate for 21±4 days before the cell monolayers were used for experiments. Apparent permeability coefficients were determined for A→B and B→A directions with and without the presence of elacridar as a transporter inhibitor. Up to three test items and reference compounds were dissolved in Hank's balanced salt solution at pH 7.4 to yield a final concentration of 10 μM.
The assays were performed in HBSS containing 25 mM HEPES (pH 7.4) at 37° C. Prior to the study, the monolayers were washed in prewarmed HBSS. At the start of the experiments prewarmed HBSS containing the test items was added to the donor side of the monolayer and HBSS without test items was added to the receiver side. Aliquots of the receiver side were taken over the 2 h incubation period; aliquots of the donor side were taken at 0 hand 2 h. Aliquots were diluted with an equal volume of methanol/water with 0.1% formic acid containing the internal standard. The mixture was analyzed by LC-MS/MS. The apparent permeability coefficients (Papp) were calculated using the formula: Papp=(dCrec/dt)/(A×C0,donor)]×106 with dCrev/dt being the change in concentration in the receiver compartment with time, C0,donor the concentration in the donor compartment at time 0, and A the area of the compartment with the cells.

[4] = Caco-2 permeability assay; settings: human, Caco-2, pH 7.4, with elacridar (concentration not stated)

Row | Caco2 A → B (Caco-2 cells) | Papp A→B at 2 h, 10 μM [4] [×10⁻⁶ cm/s] | Compound | TNF α Inhibition [3] | also measured
1 | 11.1 nm/s | 0.13 | CC(C)(C)c1ccc(-c2nc3c(F)cc(F)cc3[nH]2)cc1 [Example 57, 2-(4-tert-Butylphenyl)-4,6-difluoro-1H-benzo[d]imidazole] | A (A = >80% inh.) | half-life at 1 μM [1]: 46.7 min; half-life at 1 μM [2]: 99.2 min; Caco2 B → A (Caco-2 cells): 8.42 nm/s
2 | 15.8 nm/s | 0.916 | [2H]c1c([2H])c([2H])c2[nH]c(-c3ccc(C(C)(C)C)cc3)nc2c1[2H] [Example 60, 2-(4-tert-Butylphenyl)-4,5,6,7-tetradeuterio-1H-benzo[d]imidazole] | A (A = >80% inh.) | half-life at 1 μM [1]: 19.8 min; half-life at 1 μM [2]: 14.3 min; Caco2 B → A (Caco-2 cells): 40.7 nm/s
3 |  | 0.00126 | CC(C)(C)c1ccc(-c2nc3c(F)c(F)c(F)cc3[nH]2)cc1 [Example 64, 2-(4-tert-Butylphenyl)-4,5,6-trifluoro-1H-benzo[d]imidazole] | A (A = >80% inh.) | half-life at 1 μM [1]: 83.1 min; half-life at 1 μM [2]: 112 min; Caco2 B → A (Caco-2 cells): 2.54 nm/s; Caco2 A → B w/ elacridar (Caco-2 cells; with elacridar as transporter inhibitor): 0.792, nm/s
4 | 0.0893, nm/s and 0.0565 nm/s | 0.0014 | CC(C)(C)c1ccc(-c2nc3ccccc3n2COP(=O)(O)O)cc1 [Example 10-P, Dihydrogen ((2-(4-(tert-butyl)phenyl)-1H-benzo[d]imidazol-1-yl)methyl) phosphate] |  | half-life at 1 μM [1]: 159 min; half-life at 1 μM [2]: 159 min
5 | 24.7 nm/s and 22.3 nm/s | 2.15 | CC(C)(C)c1ccc(-c2nc3cnccc3[nH]2)cc1 [Example 2, 2-(4-(tert-Butyl)phenyl)-1H-imidazo[4,5-c]pyridine] | A (A = >80% inh.) | Caco2 B → A (Caco-2 cells): 57.1 nm/s
6 | 0.878 nm/s | 0.0408 | CC(C)(C)c1ccc(-c2nc3cc(C(F)(F)F)ccc3[nH]2)cc1 [Example 42, 2-(4-tert-Butylphenyl)-5-(trifluoromethyl)-1H-benzo[d]imidazole] | A (A = >80% inh.) | half-life at 1 μM [1]: 110 min; half-life at 1 μM [2]: 83.8 min; Caco2 B → A (Caco-2 cells): 1.2 nm/s
7 | 9.33 nm/s and 6.35 nm/s | 0.251 | COC(=O)n1c(-c2ccc(C(C)(C)C)cc2)nc2ccccc21 [Example 14-P, Methyl 2-(4-(tert-butyl)phenyl)-1H-benzo[d]imidazole-1-carboxylate] |  | half-life at 1 μM [1]: 5.5 min; half-life at 1 μM [2]: 25.1 min
8 | 9.86 nm/s | 0.858 | CC(C)(C)c1ccc(-c2cn3ccccc3n2)cc1 [Example 5, 2-(4-tert-Butylphenyl)imidazo[1,2-a]pyridine] | A (A = >80% inh.) | half-life at 1 μM [1]: 8.4 min; half-life at 1 μM [2]: 11.5 min
9 | 47.8 nm/s | 3.11 | Nc1ccc(-c2nc3ccccc3[nH]2)cc1 [Example 76, 2-(4-Aminophenyl)-1H-benzo[d]imidazole] | A (A = >80% inh.) | half-life at 1 μM [1]: 8.3 min; half-life at 1 μM [2]: 25.4 min
10 | 0.532 nm/s and 1.01 nm/s | 0.0282 | CCCC(=O)OCn1c(-c2ccc(C(C)(C)C)cc2)nc2ccccc21 [Example 2-P, (2-(4-(tert-Butyl)phenyl)-1H-benzo[d]imidazol-1-yl)methyl butyrate] |  | 
11 |  |  | Fc1ccc(-c2nc3ccccc3[nH]2)cc1 [Example 34, 2-(4-Fluorophenyl)-1H-benzo[d]imidazole] | C (C = <50% inh.) | 
12 |  |  | FC(F)(F)Oc1ccc(-c2nc3ccccc3[nH]2)cc1 [Example 66, 2-(4-Trifluoromethoxyphenyl)-1H-benzo[d]imidazole] | C (C = <50% inh.) | 
13 |  |  | CC(C)(C)c1ccc(-c2nc3cnccc3[nH]2)cn1 [Example 13, 2-(6-tert-Butyl-3-pyridyl)-1H-imidazo[4,5-c]-pyridine] | B (B = 50-80% inh.) | 
14 |  |  | COc1ccccc1-c1nc2ccccc2[nH]1 [Example 25, 2-(2-Methoxy-phenyl)-1H-benzo[d]imidazole] | C (C = <50% inh.) | 
15 |  |  | CC(C)(C)c1ccc(-c2nc3cc(F)c(F)cc3[nH]2)cc1 [Example 52, 2-(4-tert-Butylphenyl)-5,6-difluoro-1H-benzo[d]imidazole] | C (C = <50% inh.) | 
16 |  | 0.105 | CC(=O)OCn1c(-c2ccc(C(C)(C)C)cc2)nc2ccccc21 [Example 1-P, (2-(4-(tert-Butyl)phenyl)-1H-benzo[d]imidazol-1-yl)methyl acetate] |  | half-life at 1 μM [2]: 10.1 min
17 |  |  | Cc1ccccc1-c1nc2ccccc2[nH]1 [Example 12, 2-(2-Methylphenyl)-1H-benzo[d]imidazole] | C (C = <50% inh.) | 

Row | Caco2 A → B (Caco-2 cells) | Papp A→B at 2 h, 10 μM [4] [×10⁻⁶ cm/s] | Compound | TNF α Inhibition [3] | also measured
18 |  |  | CC(C)(C)c1ccc(-c2nc3c(C(N)=O)cccc3[nH]2)cc1 [Example 74, 2-(4-tert-Butylphenyl)-1H-benzo[d]imidazol-4-carboxamide] | A (A = >80% inh.) | 
19 |  |  | c1ccc(COc2ccc(-c3nc4ccccc4[nH]3)cc2)cc1 [Example 73, 2-(4-Benzyloxyphenyl)-1H-benzo[d]imidazole] | C (C = <50% inh.) | 
20 |  |  | CC(C)(C)c1ccc(-c2nc3ccccc3s2)cc1 [Example 3, 2-(4-tert-Butylphenyl)-1,3-benzothiazole] | C (C = <50% inh.) | 
21 |  |  | Brc1cccc(-c2nc3ccccc3[nH]2)c1 [Example 19, 2-(3-Bromophenyl)-1H-benzo[d]imidazole] | C (C = <50% inh.) | 
22 |  |  | COc1cccc2[nH]c(-c3ccc(C(C)(C)C)cc3)nc12 [Example 51, 2-(4-tert-Butylphenyl)-4-methoxy-1H-benzo[d]imidazole] | A (A = >80% inh.) | 
23 |  |  | Clc1ccc(-c2nc3ccccc3[nH]2)cc1 [Example 8, 2-(4-Chlorophenyl)-1H-benzo[d]imidazole] | C (C = <50% inh.) | 
24 |  |  | CC(C)(C)c1ccc(-c2nc3cc(C#N)ccc3[nH]2)cc1 [Example 31, 2-(4-tert-Butylphenyl)-1H-benzo[d]imidazole-5-carbonitrile] | A (A = >80% inh.) | 
25 |  |  | c1ccc(Oc2ccc(-c3nc4ccccc4[nH]3)cc2)cc1 [Example 72, 2-(4-Phenoxyphenyl)-1H-benzo[d]imidazole] | C (C = <50% inh.) | 
26 |  |  | CC(C)(C)c1ccc(-c2nc3c(F)cccc3[nH]2)cc1 [Example 49, 2-(4-tert-Butylphenyl)-4-fluoro-1H-benzo[d]imidazole] | A (A = >80% inh.) | 
27 |  |  | Brc1ccccc1-c1nc2ccccc2[nH]1 [Example 23, 2-(2-Bromophenyl)-1H-benzo[d]imidazole] | B (B = 50-80% inh.) | 
28 | 16 nm/s | 1.33 | CC(C)(C)c1ccc(-c2nc3cc(C(N)=O)ccc3[nH]2)cc1 [Example 75, 2-(4-tert-Butylphenyl)-1H-benzo[d]imidazol-5-carboxamide] | A (A = >80% inh.) | Caco2 B → A (Caco-2 cells): 28.5 nm/s
29 |  |  | N#Cc1cccc(-c2nc3ccccc3[nH]2)c1 [Example 30, 2-(3-Cyanophenyl)-1H-benzo[d]imidazole] | C (C = <50% inh.) | 
30 |  |  | FC(F)(F)c1ccc(-c2nc3ccccc3[nH]2)cc1 [Example 15, 2-(4-Trifluoro-methylphenyl)-1H-benzo[d]imidazole] | C (C = <50% inh.) | 
31 |  |  | Oc1ccccc1-c1nc2ccccc2[nH]1 [Example 16, 2-(2-Hydroxy-phenyl)-1H-benzo[d]imidazole] | C (C = <50% inh.) | 
32 |  |  | Cc1ccc(-c2nc3ccccc3[nH]2)cc1 [Example 11, 2-(4-Methylphenyl)-1H-benzo[d]imidazole] | A (A = >80% inh.) | 
33 |  |  | FC(F)(F)C1(c2ccc(-c3nc4ccccc4[nH]3)cc2)CC1 [Example 59, 2-[4-[1-(Trifluoromethyl)-cyclopropyl]phenyl]-1H-benzo[d]imidazole] | C (C = <50% inh.) | 
